Experimental data reported in ChEMBL document CHEMBL1759884, “Synthesis and evaluation of bibenzyl glycosides as potent tyrosinase inhibitors” (Eur J Med Chem, 2011).

Each compound was assayed against Tyrosinase (Agaricus bisporus) (assay: Inhibition of Tyrosinase).

Row | SMILES | IC50 [nM]
1 | OC[C@H]1O[C@@H](Oc2ccc(CCc3ccc(O)cc3O)c(O)c2)[C@H](O)[C@@H](O)[C@@H]1O | 770
2 | OC[C@H]1O[C@@H](O[C@H]2[C@H](O)[C@@H](O)[C@H](Oc3ccc(CCc4ccc(O)cc4O)c(O)c3)O[C@@H]2CO)[C@H](O)[C@@H](O)[C@@H]1O | 680
3 | OC[C@H]1O[C@H](O[C@H]2[C@H](O)[C@@H](O)[C@H](Oc3ccc(CCc4ccc(O)cc4O)c(O)c3)O[C@@H]2CO)[C@H](O)[C@@H](O)[C@@H]1O | 830
4 | Oc1ccc(CCc2ccc(O)cc2O[C@@H]2OC[C@@H](O)[C@H](O)[C@H]2O)c(O)c1 | 1600
5 | Oc1ccc(CCc2ccc(O[C@@H]3OC[C@@H](O)[C@H](O)[C@H]3O)cc2O)c(O)c1 | 430
